In a melting point compilation (Tetko et al.):

Row | melting point | SMILES
1 | 177 to 179 °C | c1cncc(CNc2nc3ccccc3[nH]2)c1
2 | 91 to 93 °C | CC(Oc1ccccc1Cc1ccccc1)C(=O)O (stereo unspecified)
3 | 111 to 113 °C | O=C(O)C1CCc2c(Cl)cccc21 (stereo unspecified)
4 | 174 to 176 °C | Cc1ncncc1C(=O)O
5 | 162 to 164 °C | O=C1CCc2cc(Cl)ccc2N1
6 | 74 to 76 °C | O=Cc1c(Cl)cccc1N1CCOCC1
7 | 67 to 69 °C | CC(C)(C)c1ccc(C(=O)C(=O)O)cc1
8 | 169 to 171 °C | NC(=O)C(CC(=O)O)NC(=O)OCc1ccccc1 (stereo unspecified)
9 | 70 to 72 °C | Nc1cc(F)c(N2CCCCC2)c(F)c1
10 | 184 to 186 °C | Cc1ccc(CNC(N)=O)cc1
11 | 149 to 151 °C | CN(CC(N)=S)C(=O)c1ccccc1
12 | 56 to 58 °C | O=C(CCCl)NCCc1ccccc1
13 | 189 to 191 °C | Nc1cc(F)c(Br)cc1C(=O)O
14 | 31 to 33 °C | COCCn1nc(C)c(C(C)=O)c1C
15 | 113 to 115 °C | Nc1cc(F)c(I)c(F)c1
16 | 183 to 185 °C | Sc1nnc(Nc2ccc(Oc3ccccc3)cc2)s1
17 | 136 to 138 °C | O=C(NCCO)c1ccncc1
18 | 99 to 101 °C | Nc1cc(C(F)(F)F)ccc1N1CC(C(F)(F)F)OC1=O (stereo unspecified)
19 | 220 to 222 °C | O=C(O)CCc1nc2sc3c(c2c(=O)[nH]1)CCC3
20 | 142 to 144 °C | COc1ccc(NC(=O)CCl)cc1S(=O)(=O)N1CCCCC1
21 | 253 to 255 °C | N#Cc1ccc(=O)[nH]c1
22 | 134 to 136 °C | Nc1ccc(C(=O)N2CCOCC2)cc1
23 | 145 to 147 °C | O=Cc1ccc(OCc2occc2C(=O)O)cc1
24 | 119 to 121 °C | CSCc1cc(C(=O)O)ccc1F

Row | melting point | SMILES
25 | 117 to 119 °C | O=C(O)CSc1ccc(Br)cc1
26 | 85 to 87 °C | CC(C)N1C(=O)CNCC1(C)C
27 | 173 to 177 °C | O=S(=O)(c1ccc2c(c1)CCN2)N1CCOCC1
28 | 45 to 47 °C | N#CCc1ccc2ccccc2n1
29 | 74 to 76 °C | NCc1cccc(NC(=O)c2ccccn2)c1
30 | 158 to 160 °C | O=C(CC(=O)Nc1ccccc1F)Nc1ccccc1F
31 | 74 to 76 °C | OCCOc1ccccc1C(F)(F)F
32 | 89 to 91 °C | COc1cc(Br)c(C=O)c(OC)c1
33 | 115 to 117 °C | CCCc1ccc(-c2csc(N)n2)cc1
34 | 143 to 145 °C | O=C(O)CCNS(=O)(=O)c1cccc(Cl)c1
35 | 130 to 132 °C | CN(C)CCC(=O)O
36 | 63 to 65 °C | CSc1ccc(OCCCl)cc1
37 | 108 to 110 °C | COc1ccc(N)cc1NC(=O)OC(C)(C)C
38 | 174 to 176 °C | O=c1[nH]c2ccccc2c(=O)n1CCCO
39 | 113 to 115 °C | CC(C)NC(=O)C(C#N)=CN(C)C
40 | 189 to 191 °C | COc1cc(OC)c(N)c(C(=O)O)c1
41 | 166 to 168 °C | Nc1[nH]ncc1-c1ccc2c(c1)OCO2
42 | 60 to 62 °C | CC(=O)CC(=O)Nc1ccccc1C(F)(F)F
43 | 89 to 91 °C | N#Cc1ccc(C(O)C(=O)O)cc1 (stereo unspecified)
44 | 89 to 91 °C | CC(C)(C)C1CCc2sc(-c3nnc(CCl)o3)cc2C1 (stereo unspecified)
45 | 146 to 148 °C | CS(=O)(=O)NCc1ccc(N)cc1
46 | 129 to 131 °C | CC(=O)CC(=O)Nc1ccc2nc(C)sc2c1
47 | 119 to 121 °C | Cc1nn(C)c(C)c1C(C)C(=O)O (stereo unspecified)
48 | 74 to 78 °C | CN(C)S(=O)(=O)c1cccc(NC(=O)CCl)c1

Row | melting point | SMILES
49 | 215 to 217 °C | C=CCNS(=O)(=O)c1ccc(C(=O)O)cc1
50 | 188 to 190 °C | COc1ccc2cc(C(N)=S)ccc2c1
51 | 99 to 101 °C | CN1CCC(C(=O)O)c2ccccc21 (stereo unspecified)
52 | 196 to 198 °C | Cc1oc(-c2cccs2)nc1C(=O)O
53 | 42 to 45 °C | COC(=O)c1ccc(C(Br)Br)cc1
54 | 102 to 104 °C | Cc1cc(C)n(CC(=O)NN)n1
55 | 201 to 203 °C | CSCc1c(C(=O)O)sc2ccccc12
56 | 100 to 102 °C | CSCc1c(C(=O)O)oc2ccccc12
57 | 44 to 46 °C | Brc1ccc(NCc2ccsc2)cc1
58 | 90 to 92 °C | CC(O)(Cc1ccccc1)C(=O)O (stereo unspecified)
59 | 68 to 70 °C | NC(=S)CC1CC1
60 | 79 to 81 °C | Cc1cccc(-c2cc(N)n(Cc3ccccc3)n2)c1
61 | 81 to 83 °C | CNC(=O)COc1ccc(N)c(F)c1
62 | 239 to 241 °C | O=C(O)C(CO)NS(=O)(=O)c1ccc(Br)cc1 (stereo unspecified)
63 | 168 to 170 °C | NC1=NN(c2ccccc2)CC1
64 | 136 to 138 °C | CC(CC(=O)O)(CC(=O)O)c1ccccc1
65 | 273 to 275 °C | CC1CC(C)(C)CC2(C1)NC(=O)NC2=O (stereo unspecified)
66 | 15 to 17 °C | O[C@@H]1CCNC1
67 | 145 to 147 °C | Cn1ccnc1C(=O)c1ccc(Cl)c([N+](=O)[O-])c1
68 | 175 to 177 °C | O=C(O)/C=C/c1ccc2c(c1)CCO2
69 | 169 to 171 °C | O=C(O)COc1cccc(N2CCCC2=O)c1
70 | 65 to 67 °C | Cc1cc(Cl)c(C#N)c(C)n1
71 | 64 to 66 °C | CCCN(C(=O)c1ccccc1N)C(C)C
72 | 164 to 166 °C | COC(=O)c1cc(S(N)(=O)=O)c(F)cc1Br

Row | melting point | SMILES
73 | 233 to 235 °C | O=C(O)C=Cc1cnc2ccccc2n1
74 | 189 to 191 °C | COc1ccc(Br)c(-c2nnc(N)o2)c1
75 | 155 to 157 °C | Nc1cc(-c2cccs2)nn1CCO
76 | 206 to 208 °C | COc1cccc(C(N)CC(=O)O)c1OC (stereo unspecified)
77 | 145 to 147 °C | Nc1cccc2[nH]ncc12
78 | 73 to 75 °C | COc1cc(C)c(C(C)=O)cc1OC
79 | 70 to 72 °C | CC(Sc1ccccn1)C(=O)O (stereo unspecified)
80 | 101 to 103 °C | COc1ccc(-c2csc(CC#N)n2)cc1OC
81 | 62 to 64 °C | CCOC(=O)C(=O)CC(=O)c1ccc(Cl)cc1
82 | 142 to 144 °C | CS(=O)(=O)Cc1cccc(S(=O)(=O)Cl)c1
83 | 104 to 106 °C | CC(C)(O)c1ccc(O)cc1
84 | 124 to 126 °C | Cc1ccc(N2CCCC2)c(C(=O)O)c1
85 | 47 to 49 °C | Cc1ccc(-n2nc(C(C)C)cc2N)cc1
86 | 49 to 51 °C | N#CCCCS(N)(=O)=O
87 | 189 to 191 °C | COc1cc(C(=O)N2CCCC(C(=O)O)C2)cc(OC)c1OC (stereo unspecified)
88 | 149 to 151 °C | Nc1ncc(-c2ccccc2F)s1
89 | 118 to 120 °C | COC(=O)C(=O)CC(=O)c1ccc(Cl)cc1Cl
90 | 40 to 45 °C | CCOc1ccc(S(=O)(=O)Cl)cc1
91 | 140 to 145 °C | Sc1nc2ccccc2n1-c1ccccc1
92 | 126 to 128 °C | COc1ccc(CNS(=O)(=O)CC#N)cc1OC
93 | 59 to 61 °C | O=S(=O)(Cl)Cc1ccc(Cl)nc1
94 | 240 to 242 °C | O=c1[nH]c2cc(F)ccc2c(=O)o1
95 | 172 to 174 °C | Nc1ccccc1CS(=O)(=O)c1ccccc1
96 | 152 to 154 °C | O=C(CCl)Nc1cc(Cl)ccc1C(=O)O

Row | melting point | SMILES
97 | 169 to 171 °C | CC(NS(=O)(=O)c1cnn(C)c1)C(=O)O (stereo unspecified)
98 | 69 to 71 °C | CS(=O)(=O)NCC#N
99 | 86 to 88 °C | CS(=O)(=O)c1cccc(C(=O)c2ccccc2)c1
100 | 62 to 64 °C | CCOCCNC(=O)c1cccc(Br)c1
101 | 165 to 167 °C | CC(C)(C)OC(=O)Nc1ncon1
102 | 173 to 175 °C | O=C(O)c1cc(Cl)cc(Cl)c1I
103 | 219 to 221 °C | CC1(c2ccccc2Br)NC(=O)NC1=O (stereo unspecified)
104 | 173 to 175 °C | O=C(O)CS(=O)(=O)Cc1cccc(Br)c1
105 | 235 to 239 °C | Cc1cccc(C(=O)NC(CCS(C)(=O)=O)C(=O)O)c1 (stereo unspecified)
106 | 115 to 117 °C | Cc1cc(C(=O)CCl)c(C)n1-c1ccc(C(F)(F)F)cc1
107 | 48 to 50 °C | OC1CCCC1n1cccn1 (stereo unspecified)
108 | 162 to 164 °C | O=C(O)c1cc(Cl)ccc1I
109 | 230 to 232 °C | CC1CCC2(CC1)NC(=O)NC2=O (stereo unspecified)
110 | 79 to 81 °C | CN(C)C(=O)c1cccc([N+](=O)[O-])c1
111 | 130 to 132 °C | Nc1ccc(NC(=O)c2ccccc2)cc1C(F)(F)F
112 | 148 to 150 °C | O=C(O)Cc1coc(-c2ccccc2)n1
113 | 71 to 73 °C | COc1ccc(C(O)c2ccc(OC)cc2C)cc1 (stereo unspecified)
114 | 55 to 57 °C | CC1CC1c1ccc(C(=O)O)o1 (stereo unspecified)
115 | 148 to 150 °C | CCOc1ccc(N)c(C(N)=O)c1
116 | 84 to 86 °C | CCOC(=O)C1CCN(C(=O)c2ccccc2)CC1
117 | 124 to 126 °C | Clc1ccc2[nH]c(C3CCCN3)nc2c1 (stereo unspecified)
118 | 200 to 202 °C | O=C(CCl)NC(=O)NCCC1=CCCCC1
119 | 140 to 142 °C | Clc1ccc(-c2n[nH]cc2Br)cc1
120 | 305 to 307 °C | Cn1c(=O)[nH]c(=O)c2ccc(C(=O)O)nc21

Row | melting point | SMILES
121 | 54 to 56 °C | O=C1C=CC(=O)N1C1CC1
122 | 136 to 138 °C | CC(=O)c1cc(Cl)cc(CN2CCN(C(C)=O)CC2)c1O
123 | 61 to 63 °C | COC(=O)C(=O)CC(=O)c1ccccc1Br
124 | 92 to 94 °C | O=[N+]([O-])c1cc(Cl)c(S(=O)(=O)Cl)c(Cl)c1
125 | 145 to 147 °C | Cc1ccc(O)c(N)n1
126 | 199 to 201 °C | Cn1cc(C(=O)O)c(C(F)F)n1
127 | 218 to 220 °C | Cc1ccc(NS(=O)(=O)c2c[nH]c(C(=O)O)c2)c(C)c1
128 | 249 to 251 °C | Cc1ccc(=O)n(CC(=O)O)n1
129 | 154 to 156 °C | CC(C)(C)OC(=O)Nc1ccccc1C(=O)O
130 | 152 to 154 °C | CS(=O)(=O)Cc1ccc(N)cc1F
131 | 126 to 128 °C | CNc1ccc(Oc2ccccn2)cc1
132 | 339 to 341 °C | O=C(O)c1cc(F)cc2[nH]cnc12
133 | 103 to 105 °C | O=C(CCl)Nc1ccc(Cl)c(Cl)c1
134 | 81 to 83 °C | O=c1n(CCCO)nc2ccccn12
135 | 102 to 104 °C | COC(=O)c1cccc(CS(=O)(=O)Cl)c1
136 | 345 to 347 °C | Sc1nc2ccccc2nc1S
137 | 163 to 165 °C | Cc1nc(N)sc1-c1ccccc1
138 | 75 to 77 °C | Cc1cccc(CC(N)=S)c1
139 | 164 to 166 °C | O=C(O)C=Cc1ccccc1OC(F)F

Row | SMILES | melting point
140 | O=S(=O)(F)Cc1ccccc1Cl | 69 to 71 °C
141 | Cc1ccc(C(O)CN)cc1 (stereo unspecified) | 70 to 72 °C
142 | NC(=O)NC(=O)CCl | 181 to 183 °C
143 | Cc1nn(C(C)(C)C)c(C)c1C(=O)O | 158 to 160 °C
144 | CS(=O)(=O)c1cc([N+](=O)[O-])c(O)c([N+](=O)[O-])c1 | 221 to 223 °C
145 | Cc1ccn2c(CN3CCNCC3)c(C)nc2c1 | 97 to 99 °C
146 | Cc1csc(NC(=O)CCl)n1 | 127 to 129 °C
